Legend:
[1] = biological target: T1, ARFA (ARFB1b), residues 18-192 (Arabidopsis thaliana, UniProt Q9LFJ7); assay: tryptophan fluorescence nucleotide exchange (ex […] nm, em […] nm); assay type: binding; conditions: 1 uM GDP-loaded ARF, 66 uM GTPgammaS, 50 nM SEC7 domain of BIG5 (residues 587-791), 10 mM MgCl2, pH 7.5, 37 C
T1 construct: N-terminally truncated (residues 18-192), 6xHis-tagged (pET30a), expressed in E. coli BL21(DE3), Ni-NTA purified

[2] = biological target: T2, ARF1 (ARFA1c), residues 18-181 (Arabidopsis thaliana, UniProt P36397); assay: as above; assay type: binding; conditions: 1 uM GDP-loaded ARF, 66 uM GTPgammaS, 50 nM SEC7 domain of BIG5 (residues 587-791), 10 mM MgCl2, pH 7.5, 37 C
T2 construct: N-terminally truncated (residues 18-181), 6xHis-tagged (pET30a), expressed in E. coli BL21(DE3), Ni-NTA purified
T2 sequence (P36397 18-181): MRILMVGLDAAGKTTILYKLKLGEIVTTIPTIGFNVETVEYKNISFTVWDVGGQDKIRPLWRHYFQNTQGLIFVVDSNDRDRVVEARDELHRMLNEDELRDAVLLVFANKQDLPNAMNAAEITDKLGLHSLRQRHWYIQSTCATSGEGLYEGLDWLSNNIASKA

T1 sequence (Q9LFJ7 18-192): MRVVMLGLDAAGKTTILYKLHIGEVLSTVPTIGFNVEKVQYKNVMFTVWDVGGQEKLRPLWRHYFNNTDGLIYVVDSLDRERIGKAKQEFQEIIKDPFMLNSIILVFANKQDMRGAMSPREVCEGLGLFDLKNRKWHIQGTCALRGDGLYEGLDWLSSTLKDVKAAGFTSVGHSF

## Nc1nc2c(ncn2[C@@H]2O[C@H](COP(=O)(O)OP(=O)(O)OP(O)(O)=S)[C@@H](O)[C@H]2O)c(=O)[nH]1 [GTPγS]
[1]
  tryptophan fluorescence nucleotide exchange (ex 298 nm, em 340 nm): The SEC7 domain of BIG5 catalyzed GDP-GTP exchange on ARF1(wt), ARFA(wt) and ARFA-Q71L
[2]
  tryptophan fluorescence nucleotide exchange (ex 298 nm, em 340 nm): The SEC7 domain of BIG5 catalyzed GDP-GTP exchange on ARF1(wt), ARFA(wt) and ARFA-Q71L

From PMC6264874, “A single class of ARF GTPase activated by several pathway-specific ARF-GEFs regulates essential membrane traffic in Arabidopsis” (PLoS Genetics, 2018)
